ChEMBL document CHEMBL1201862, “PubChem BioAssay data set” (2004)
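These data come from cells grown in 96-well plates and exposed to compound for 48 hours at five concentrations. Here, GI50 denotes the concentration required for 50% inhibition of growth.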 Active and inactive are the calls of the source. Rule as the data show it: active = GI50 up to about 1.1 µM and inactive = higher.

Key:
Test in all cases: growth of human tumour cells (NCI), 48 h
786-0 = tested on: 786-0
A549 = tested on: A549
ACHN = tested on: ACHN
BT-549 = tested on: BT-549
CAKI-1 = tested on: CAKI-1
CCRF-CEM = tested on: CCRF-CEM
COLO 205 = tested on: COLO 205
DU-145 = tested on: DU-145
EKVX = tested on: EKVX
HCC 2998 = tested on: HCC 2998
HCT-116 = tested on: HCT-116
HCT-15 = tested on: HCT-15
HL-60 = tested on: HL-60
HOP-62 = tested on: HOP-62
HOP-92 = tested on: HOP-92
HT-29 = tested on: HT-29
Hs-578T = tested on: Hs-578T
IGROV-1 = tested on: IGROV-1
K562 = tested on: K562
KM12 = tested on: KM12
LOX IMVI = tested on: LOX IMVI
M14 = tested on: M14
MCF7 = tested on: MCF7
MDA-MB-231 = tested on: MDA-MB-231
MDA-MB-435 = tested on: MDA-MB-435
Malme-3M = tested on: Malme-3M
NCI-H226 = tested on: NCI-H226
NCI-H23 = tested on: NCI-H23
NCI-H460 = tested on: NCI-H460
NCI-H522 = tested on: NCI-H522
NCI/ADR-RES = tested on: NCI/ADR-RES
OVCAR-3 = tested on: OVCAR-3
OVCAR-4 = tested on: OVCAR-4
OVCAR-5 = tested on: OVCAR-5
OVCAR-8 = tested on: OVCAR-8
PC-3 = tested on: PC-3
RPMI-8226 = tested on: RPMI-8226
RXF 393 = tested on: RXF 393
SF-268 = tested on: SF-268
SF-295 = tested on: SF-295
SF-539 = tested on: SF-539
SK-MEL-28 = tested on: SK-MEL-28
SK-MEL-2 = tested on: SK-MEL-2
SK-MEL-5 = tested on: SK-MEL-5
SK-OV-3 = tested on: SK-OV-3
SN12C = tested on: SN12C
SNB-19 = tested on: SNB-19
SNB-75 = tested on: SNB-75
SW-620 = tested on: SW-620
T47D = tested on: T47D
TK-10 = tested on: TK-10
U-251 = tested on: U-251
UACC-257 = tested on: UACC-257
UACC-62 = tested on: UACC-62
UO-31 = tested on: UO-31
A498 = tested on: A498
MOLT-4 = tested on: MOLT-4
SR = tested on: SR

SMILES: O=C1CCCc2c1c1c(n2Cc2ccccc2)-c2ccccc2C1=O
- GI50 (786-0): 21.6 µM (inactive)
- GI50 (A549): 23 µM (inactive)
- GI50 (ACHN): 16 µM (inactive)
- GI50 (BT-549): 22.8 µM (inactive)
- GI50 (CAKI-1): 21.1 µM (inactive)
- GI50 (CCRF-CEM): 31 µM (inactive)
- GI50 (COLO 205): 17.9 µM (inactive)
- GI50 (DU-145): 28.9 µM (inactive)
- GI50 (EKVX): 27.7 µM (inactive)
- GI50 (HCC 2998): 15.2 µM (inactive)
- GI50 (HCT-116): 14.4 µM (inactive)
- GI50 (HCT-15): 15 µM
- GI50 (HL-60): 23.9 µM (inactive)
- GI50 (HOP-62): 25.5 µM (inactive)
- GI50 (HOP-92): 26.9 µM (inactive)
- GI50 (HT-29): 31.1 µM (inactive)
- GI50 (Hs-578T): 28.7 µM (inactive)
- GI50 (IGROV-1): 18.9 µM (inactive)
- GI50 (K562): 13.9 µM (inactive)
- GI50 (KM12): 17.9 µM (inactive)
- GI50 (LOX IMVI): 17.9 µM (inactive)
- GI50 (M14): 21.3 µM (inactive)
- GI50 (MCF7): 29 µM (inactive)
- GI50 (MDA-MB-231): 15.4 µM (inactive)
- GI50 (MDA-MB-435): 18.4 µM (inactive)
- GI50 (Malme-3M): 15.3 µM (inactive)
- GI50 (NCI-H226): 21.6 µM (inactive)
- GI50 (NCI-H23): 14.9 µM (inactive)
- GI50 (NCI-H460): 25.8 µM (inactive)
- GI50 (NCI-H522): 12.3 µM (inactive)
- GI50 (NCI/ADR-RES): 21.1 µM (inactive)
- GI50 (OVCAR-3): 16 µM (inactive)
- GI50 (OVCAR-4): 14 µM (inactive)
- GI50 (OVCAR-5): 32.1 µM (inactive)
- GI50 (OVCAR-8): 16.4 µM (inactive)
- GI50 (PC-3): 27.4 µM (inactive)
- GI50 (RPMI-8226): 3.14 µM (inactive)
- GI50 (RXF 393): 29.9 µM (inactive)
- GI50 (SF-268): 22.2 µM (inactive)
- GI50 (SF-295): 15.7 µM (inactive)
- GI50 (SF-539): 21.1 µM (inactive)
- GI50 (SK-MEL-28): 33.3 µM (inactive)
- GI50 (SK-MEL-2): 18.9 µM (inactive)
- GI50 (SK-MEL-5): 18.7 µM (inactive)
- GI50 (SK-OV-3): 18.8 µM (inactive)
- GI50 (SN12C): 19.3 µM (inactive)
- GI50 (SNB-19): 15.4 µM (inactive)
- GI50 (SNB-75): 62.5 µM (inactive)
- GI50 (SW-620): 32.3 µM (inactive)
- GI50 (T47D): 5.93 µM (inactive)
- GI50 (TK-10): 10.5 µM (inactive)
- GI50 (U-251): 20.7 µM (inactive)
- GI50 (UACC-257): 17.3 µM (inactive)
- GI50 (UACC-62): 17.9 µM (inactive)
- GI50 (UO-31): 23.7 µM (inactive)

SMILES: CCOC(=O)CN1C(=O)NC(C)(c2ccccc2)C1=O (centres undefined)
- GI50 (786-0): > 100 µM (inactive)
- GI50 (A498): > 100 µM (inactive)
- GI50 (A549): > 100 µM (inactive)
- GI50 (ACHN): > 100 µM (inactive)
- GI50 (BT-549): > 100 µM (inactive)
- GI50 (CAKI-1): > 100 µM (inactive)
- GI50 (CCRF-CEM): > 100 µM (inactive)
- GI50 (COLO 205): > 100 µM (inactive)
- GI50 (DU-145): > 100 µM (inactive)
- GI50 (EKVX): > 100 µM (inactive)
- GI50 (HCC 2998): > 100 µM (inactive)
- GI50 (HCT-116): > 100 µM (inactive)
- GI50 (HCT-15): > 100 µM
- GI50 (HOP-62): > 100 µM (inactive)
- GI50 (HOP-92): > 100 µM (inactive)
- GI50 (HT-29): > 100 µM (inactive)
- GI50 (Hs-578T): > 100 µM (inactive)
- GI50 (IGROV-1): > 100 µM (inactive)
- GI50 (K562): > 100 µM (inactive)
- GI50 (KM12): > 100 µM (inactive)
- GI50 (LOX IMVI): > 100 µM (inactive)
- GI50 (M14): > 100 µM (inactive)
- GI50 (MCF7): > 100 µM (inactive)
- GI50 (MDA-MB-231): > 100 µM (inactive)
- GI50 (MDA-MB-435): > 100 µM (inactive)
- GI50 (MOLT-4): > 100 µM (inactive)
- GI50 (NCI-H23): > 100 µM (inactive)
- GI50 (NCI-H522): > 100 µM (inactive)
- GI50 (NCI/ADR-RES): > 100 µM (inactive)
- GI50 (OVCAR-3): > 100 µM (inactive)
- GI50 (OVCAR-4): > 100 µM (inactive)
- GI50 (OVCAR-5): > 100 µM (inactive)
- GI50 (OVCAR-8): > 100 µM (inactive)
- GI50 (PC-3): > 100 µM (inactive)
- GI50 (RPMI-8226): > 100 µM (inactive)
- GI50 (RXF 393): > 100 µM (inactive)
- GI50 (SF-268): > 100 µM (inactive)
- GI50 (SF-295): > 100 µM (inactive)
- GI50 (SF-539): > 100 µM (inactive)
- GI50 (SK-MEL-28): > 100 µM (inactive)
- GI50 (SK-MEL-2): > 100 µM (inactive)
- GI50 (SK-MEL-5): > 100 µM (inactive)
- GI50 (SK-OV-3): > 100 µM (inactive)
- GI50 (SN12C): > 100 µM (inactive)
- GI50 (SNB-19): > 100 µM (inactive)
- GI50 (SNB-75): > 100 µM (inactive)
- GI50 (SW-620): > 100 µM (inactive)
- GI50 (T47D): > 100 µM (inactive)
- GI50 (TK-10): > 100 µM (inactive)
- GI50 (U-251): > 100 µM (inactive)
- GI50 (UACC-257): > 100 µM (inactive)
- GI50 (UACC-62): > 100 µM (inactive)
- GI50 (UO-31): > 100 µM (inactive)

SMILES: CCOC(=O)CSc1nc(-c2ccccc2)c(C#N)c(=O)[nH]1
- GI50 (786-0): > 100 µM (inactive)
- GI50 (A498): > 100 µM (inactive)
- GI50 (A549): > 100 µM (inactive)
- GI50 (ACHN): > 100 µM (inactive)
- GI50 (BT-549): > 100 µM (inactive)
- GI50 (CAKI-1): > 100 µM (inactive)
- GI50 (CCRF-CEM): > 100 µM (inactive)
- GI50 (COLO 205): > 100 µM (inactive)
- GI50 (DU-145): > 100 µM (inactive)
- GI50 (EKVX): > 100 µM (inactive)
- GI50 (HCC 2998): > 100 µM (inactive)
- GI50 (HCT-116): > 100 µM (inactive)
- GI50 (HCT-15): > 100 µM
- GI50 (HL-60): > 100 µM (inactive)
- GI50 (HOP-62): > 100 µM (inactive)
- GI50 (HOP-92): > 100 µM (inactive)
- GI50 (HT-29): > 100 µM (inactive)
- GI50 (Hs-578T): > 100 µM (inactive)
- GI50 (IGROV-1): > 100 µM (inactive)
- GI50 (K562): > 100 µM (inactive)
- GI50 (KM12): > 100 µM (inactive)
- GI50 (M14): > 100 µM (inactive)
- GI50 (MCF7): > 100 µM (inactive)
- GI50 (MDA-MB-231): > 100 µM (inactive)
- GI50 (MDA-MB-435): > 100 µM (inactive)
- GI50 (MOLT-4): > 100 µM (inactive)
- GI50 (NCI-H226): > 100 µM (inactive)
- GI50 (NCI-H23): > 100 µM (inactive)
- GI50 (NCI-H460): > 100 µM (inactive)
- GI50 (NCI-H522): 21.4 µM (inactive)
- GI50 (NCI/ADR-RES): > 100 µM (inactive)
- GI50 (OVCAR-3): > 100 µM (inactive)
- GI50 (OVCAR-4): > 100 µM (inactive)
- GI50 (OVCAR-5): > 100 µM (inactive)
- GI50 (OVCAR-8): > 100 µM (inactive)
- GI50 (PC-3): > 100 µM (inactive)
- GI50 (RPMI-8226): > 100 µM (inactive)
- GI50 (RXF 393): > 100 µM (inactive)
- GI50 (SF-268): > 100 µM (inactive)
- GI50 (SF-295): > 100 µM (inactive)
- GI50 (SF-539): > 100 µM (inactive)
- GI50 (SK-MEL-28): > 100 µM (inactive)
- GI50 (SK-MEL-2): > 100 µM (inactive)
- GI50 (SK-MEL-5): > 100 µM (inactive)
- GI50 (SK-OV-3): > 100 µM (inactive)
- GI50 (SN12C): > 100 µM (inactive)
- GI50 (SNB-19): > 100 µM (inactive)
- GI50 (SNB-75): > 100 µM (inactive)
- GI50 (SR): > 100 µM (inactive)
- GI50 (SW-620): > 100 µM (inactive)
- GI50 (T47D): > 100 µM (inactive)
- GI50 (TK-10): > 100 µM (inactive)
- GI50 (U-251): > 100 µM (inactive)
- GI50 (UACC-257): > 100 µM (inactive)
- GI50 (UACC-62): > 100 µM (inactive)
- GI50 (UO-31): > 100 µM (inactive)
